This is an account of results in BindingDB's records for doi:10.1016/S0960-894X(00)80308-X (1993).

The assay concerns the target Human immunodeficiency virus type 1 protease (Human immunodeficiency virus 1, UniProt Q72874). Nature of the assay: ChEBML_159632. On the procedure: Inhibitory concentration required to inhibit HIV-1 protease was determined

A word on the Ki: it is the dissociation constant of the complex between target and ligand, obtained from inhibition or displacement. Lower therefore signals a stronger hold on the target. Turning to `CC(C)(C)OC(=O)N[C@H](C(=O)C(=C=N)c1ccc([N+](=O)[O-])cc1)C(=O)C(N)c1ccccc1` (some centres not stated), the Ki amounted to 30 µM.
Compound `N=C=C(C(=O)[C@H](Cc1ccccc1)NC(=O)OCc1ccccc1)c1ccc([N+](=O)[O-])cc1` returned an inhibitory constant (Ki) of 30 µM.
